Data taken from US20050152959A1, “Use of a lysolipid for the preparation of a composition for transfection of a polynucleotide into a cell” (Transgene S. A., priority 2001, published 2005).

What was measured:
P815 cells = experiment: Intratumoral transfer of luciferase plasmid pTG11236 with HPC into P815 tumors, luciferase measurement; assay type: in vivo; conditions: P815 tumors in B6D2 mice; 50 μl intratumoral, 10 μg plasmid pTG11236 with 0.4 mg/ml HPC; 24 hours after last injection; compared with no HPC
Protocol: FIG. 2: show the effect of HPC on intratumoral transfer of the luciferase-plasmid (pTG11236) into P815 cells. Bars are means of RLU per minute per mg protein. Luciferase activity was measured 24 hours after the last injection of 50 μl of a composition, comprising 10 μg of plasmid and 0.4 mg/ml of HPC, into B6D2 mice. Plasmid DNA (pTG11236: CMV promoter, β-globin intron, luciferase cassette, 5739 base pairs) was prepared according to Bischoff et al., Analytical Biochemistry 254 (1997), 69-81. RENCA or P815 cells were injected under the skin of 6 to 8 week old B6D2 female mice (3 10^5 cells/animal). Eleven days after the injection of the cells, palpable tumours appear. Prior to intratumoral injection HPC was mixed with the plasmid DNA preparation Then, various quantities of plasmid and HPC were directly injected into the tumor three times (with three day-time interval between subsequent injection). Twenty four hours after injection of the composition, the mice were killed and the tumors were retrieved and frozen. Luciferase activity was quantified on whole tumor extracts using a conventional measurement kit (Luciferase Assay System, Promega). Briefly, tumors were diluted in 200 μl of reporter lysis buffer (Promega). […] Luciferase activity was expressed as number of RLU emitted per minute, per mg of protein. Protein was measured on 10 μl samples using a VCA Protein Assay kit (Pierce).

RENCA cells = experiment: Intratumoral transfer of luciferase plasmid pTG11236 with HPC into RENCA tumors, luciferase measurement; assay type: in vivo; conditions: RENCA tumors in B6D2 mice; 50 μl intratumoral, 0.4, 2 or 10 μg plasmid pTG11236 with 2 mg/ml HPC; 24 hours after last injection; compared with no HPC
Protocol: FIG. 1: show the effect of hexadecylphosphocholine (HPC) on intratumoral transfer of the luciferase-plasmid (pTG11236) into RENCA cells. Bars are means of RLU per minute per mg protein. Luciferase activity was measured 24 hours after the last injection of 50 μl of a composition, comprising between 0.4, 2 or 10 μg of plasmid and 2 mg/ml of HPC, into B6D2 mice. Plasmid DNA (pTG11236: CMV promoter, β-globin intron, luciferase cassette, 5739 base pairs) was prepared according to Bischoff et al., Analytical Biochemistry 254 (1997), 69-81. RENCA or P815 cells were injected under the skin of 6 to 8 week old B6D2 female mice (3 10^5 cells/animal). Eleven days after the injection of the cells, palpable tumours appear. Prior to intratumoral injection HPC was mixed with the plasmid DNA preparation Then, various quantities of plasmid and HPC were directly injected into the tumor three times (with three day-time interval between subsequent injection). Twenty four hours after injection of the composition, the mice were killed and the tumors were retrieved and frozen. Luciferase activity was quantified on whole tumor extracts using a conventional measurement kit (Luciferase Assay System, Promega). […] Luciferase activity was expressed as number of RLU emitted per minute, per mg of protein. Protein was measured on 10 μl samples using a VCA Protein Assay kit (Pierce).

Structure (SMILES): CCCCCCCCCCCCCCCCOP(=O)([O-])OCC[N+](C)(C)C [HPC, hexadecylphosphocholine]
- Luciferase activity of the injected tumors (RLU per minute per mg protein) (P815 cells): higher
- Luciferase activity of the injected tumors (RLU per minute per mg protein) (RENCA cells): higher
